According to US7713956B2, “Dealkylated derivatives of pyrrolo[2,1-b]benzothiazepines with atypical antipsychotic activity” (Sigma-Tau Industrie Farmaceutiche Riunite S.p.A., priority 2004, dated 2010):
Where “and” joins values, the source holds several entries; their conditions need not be identical. Identical values can stand only once.

What was measured:
[1] = Pharmacokinetics after oral administration of a 60 μmol/kg dose in the rat; type: in vivo
Text: Pharmacokinetics of the Compound ST1469 and its Corresponding Des Methyl Derivative ST2087
Effect of the Oral Administration of a 60 μmol/kg Dose of Each Product in the Rat
Administration of ST1469 in the Rat (Table 1).
Administration of ST2087 in the Rat (Table 1)

Male Fischer 344 rats = assay: Active Avoidance Test (conditioned avoidance response), oral treatment; type: in vivo, rat; settings: for ED50 / effect on avoidance responses: oral; for ED50: 60 minutes prior to the test, rat, avoidance rate variable, read-out: ED50 (dose reducing avoidance responses by 50% compared to basal values); for effect on avoidance responses: over the active doses tested (ST1469 0.75-6 mg/kg; ST2087 2-8 mg/kg; ST2472 0.5-2 mg/kg)
Text: Evaluation of the Antipsychotic Potency of ST1469 and ST1899 and their Respective Desmethyl Derivatives ST2087 and ST2472. Effect of Treatment in the Active Avoidance Test.
The administration of incremental doses of an antipsychotic drug in the rat causes the inhibition of the avoidance response and an increase in the number of escape responses without any increase in non-responses (failures). This modification of the avoidance behaviour of the animals is characteristic of the effect of the administration of a compound with antipsychotic activity, which selectively blocks the conditioned response within given dosage ranges. This behavioural assessment makes it possible to detect and determine the antipsychotic capacity of a product.
Male Fischer 344 rats weighing 180 g (Charles River) were used. The products ST1469 and ST2087 were administered to the animals orally, 60 minutes prior to the test. The product ST1469 was administered at doses of 0.75 mg/5 ml/kg (1.84 μmol/kg), 1.5 mg/5 ml/kg (3.69 μmol/kg), 3 mg/5 ml/kg (7.37 μmol/kg), and 6.0 mg/5 ml/kg (14.7 μmol/kg).
For the product ST2087 the following doses were used: 2 mg/5 ml/kg (6.25 μmol/kg), 3 mg/5 ml/kg (9.38 μmol/kg), 4 mg/5 ml/kg (12.50 μmol/kg), 6 mg/5 ml/kg ([…]) and 8 mg/5 ml/kg (25.01 μmol/kg).
To perform the avoidance behaviour assessment test, a piece of equipment (Ugo Basile) was used consisting of a plastic cage divided into two compartments by a partition wall with an opening in it allowing communication between the two sectors. Each of the two sectors can be illuminated by a 10-Watt lamp placed above a plexiglass cover covering the cage. A programming device permits the regulation of the duration and frequency of the un-conditioned and discriminatory stimuli, and a computerised system acquires the experimental data. During the study the discriminatory stimulus (light was delivered 3 seconds prior to the unconditioned stimulus (0.3 mA electric shock for 4 seconds). One test per minute was performed in each session making a total of 20 tests per day. One session per day administered.
The procedure consists in a 1 minute period of familiarisation of the rats in the test cage, followed by the series of tests the start of which is signalled by the light stimulus; the discriminatory stimulus is followed, a few seconds later, by the administration of an electric shock. The rats can avoid the shock by escaping into the adjoining compartment. The responses produced after switching on the light and before the electric shock interrupt the discriminatory stimulus and are considered “avoidances”; the responses produced during the shock period terminate both the discriminatory stimulus and the unconditioned stimulus and are considered “escapes”; non-avoidances are considered “failures”.
Prior to the treatment with the study compounds, the animals were selected in relation to their ability to acquire the task. Admitted to the test assessing the effect of treatment were those rats that produced at least 75% of avoidances in the basal tests.
The results were expressed as means and standard errors. On the basis of the number of conditioned responses (avoidances), the dose of product capable of reducing the value of this variable by 50% (ED50) compared to basal values was calculated by means of non-linear regression using the GraphPad Prism data analysis program.

[2] = In vitro metabolic stability / metabolic profile in mouse hepatic microsomes; type: in vitro ADME, Mouse (CD1); settings: for metabolic profile (metabolites formed): mouse hepatic microsomes 0.5 mg/ml, 10 μg/ml test item, 37° C. up to 120 minutes
Experimental: (§1) In this study the metabolic profiles of ST1899 and its metabolite ST2472 were determined in rat, mouse and monkey microsomes.
(§2) ST1899 and ST2472 were separately incubated with the hepatic microsomes. Separate experiments were carried out for each animal species investigated. For each experiment, in addition to the test item, 7-ethoxycoumarin (Sigma-Aldrich) was also incubated as a probe for evaluating the metabolic activity of the microsomes: 7-hydroxycoumarin was identified on the basis of the retention times in comparison with those of synthesized standard and used as marker of oxidative metabolism Both the test item and the 7-ethoxycoumarin were incubated at 37° C. up to 120 minutes.
(§3) MgCl2, β-D-glucose-6-phosphate, βNADP and Glucose-6-phosphate dehydrogenase were used for preparing the NADPH regenerating solution (NRS). 250 μl of 0.1 M pH 7.4 KH2PO4 buffer, 100 μl of NRS and 50 μl of test item (or 7-ethoxycoumarin) standard solution were added to 2 ml Eppendorf test tubes. In the samples, incubated either without microsomes or test items, an equal volume of 0.1 M pH 7.4 KH2PO4 buffer was added.
(§4) The reaction was started by adding 100 μl of the microsomal suspension to the samples and stopped at selected times by adding 500 μl of methanol. Samples were shaken and centrifuged at 8000 RPM for 10 minutes at 4° C. Supernatants were used for the HPLC analysis. 7-ethoxycoumarin, ST1899 and ST2472 were analyzed according to the HPLC methods described below.

[3] = In vitro metabolic stability / metabolic profile in rat hepatic microsomes; type: in vitro ADME, Rat (Sprague Dawley); settings: for metabolic profile (metabolites formed): rat hepatic microsomes 0.5 mg/ml, 10 μg/ml test item, 37° C. up to 120 minutes
Experimental: as §1, §2, §3, §4

[4] = In vitro metabolic stability / metabolic profile in monkey hepatic microsomes; type: in vitro ADME, Monkey (Cynomolgus); settings: for metabolic profile (metabolites formed): monkey hepatic microsomes 0.5 mg/ml, 10 μg/ml test item, 37° C. up to 120 minutes
Experimental: as §1, §2, §3, §4

[5] = 60 umol/kg, analyte = administered product, oral 60 μmol/kg, rat, plasma, mean

Structure (SMILES) | AUC [1, 5] | Cmax [1, 5] | half-life [1, 5] | concentrations at the systemic level when administered as such ([1]; oral ST2087 60 μmol/kg versus ST2087 formed after ST1469, rat) | Tmax ([1]; rat, plasma, po, 60 umol/kg, analyte = administered product, oral 60 μmol/kg, mean) | ED50 (Male Fischer 344 rats) | effect on avoidance responses (Male Fischer 344 rats) | metabolic profile (metabolites formed) [2] | metabolic profile (metabolites formed) [3] | metabolic profile (metabolites formed) [4] | metabolic stability compared with ST1899 ([2]; mouse hepatic microsomes) | metabolic stability compared with ST1899 ([3]; rat hepatic microsomes) | effect on behaviour of the animals (Male Fischer 344 rats; ST2472 at 0.25 mg/kg (0.88 μmol/kg)) | metabolic stability compared with ST1899 ([4]; monkey hepatic microsomes)
Clc1ccc2c(c1)C(N1CCNCC1)Cn1cccc1S2 (racemic) [ST2087, (±)-7-chloro-9-(piperazin-1-yl)-9,10-dihydropyrrolo[2,1-b][1,3]-benzothiazepine] | 32.2 µM·h | 4.09 µM | 4.4 h | much higher concentrations than those measured after its formation as a result of administration of ST1469 | ≤ 2 h | 3.27 mg/kg and 10.2 µmol/kg | capable of reducing the production of avoidance responses |  |  |  |  |  |  | 
CN1CCN(C2=Cn3cccc3Sc3ccccc32)CC1 [ST1899, 9-(4-methylpiperazin-1-yl)-pyrrolo[2,1-b]-[1,3]benzothiazepine, reference compound] |  |  |  |  |  | 1.09 mg/kg and 3.66 µmol/kg |  | metabolized mainly to M1 | extensively metabolized to ST2472 | metabolized to ST2472 and to the metabolites M3 and M4 |  |  |  | 
C1=C(N2CCNCC2)c2ccccc2Sc2cccn21 [ST2472, 9-Piperazin-1-yl-pyrrolo[2,1-b][1,3]benzothiazepine] |  |  |  |  |  | 1.43 mg/kg and 5.05 µmol/kg | causes a progressive reduction of the avoidance responses and an increase in escapes | metabolized almost exclusively to M2 | almost exclusively metabolized to M2 | the main metabolite obtained was M3 | metabolically more stable than ST1899 | metabolically more stable than ST1899 | does not significantly modify the behaviour of the animals | metabolically more stable than ST1899
